Source: patent US8815935B2, “Inhibitors of protein prenyltransferases” (The Regents of the University of California, priority 2008, dated 2014)
Like-named read-outs stand apart in the source and are kept apart here.

Legend:
GGTase-I = biological target: T1, GGTase-I (Rattus norvegicus, UniProt P53610+Q04631); assay: In vitro GGTase-I enzyme assay (IC50, kinetics); assay type: biochemical
T1 construct: purchased JENA BIOSCIENCE
Protocol: The GGTase-I assay was carried out using RhoA as a substrate protein, GGTase-I (JENA Bioscience) and [3H]geranylgeranyl pyrophosphate. Incubation was for 30 min at 37° C. GGTase-II (or RabGGTase) assay was carried out using YPTI as a substrate protein, GGTase-II (Calbiochem, San Diego, Calif.) plus REP1 (Calbiochem) and [3H]geranylgeranyl pyrophosphate. Incubation was for 30 min at 37° C. FIGS. 20D-20F show the three dimensional structure of GGTase I (D), FTsse (E) and GGTase II (F) which can be obtained from X-ray diffraction studies of protein crystals.
GGTase-I and FTase activities were determined by following the incorporation of radiolabeled isoprenoid [^3H]-geranylgeranyl or [^3H]-farnesyl into substrate proteins. FTase or GGTase-I (50 nM) were used to initiate reactions containing 0.4 μM of [^3H]-FPP or 0.5 μM of [^3H]-GGPP and 2 μM of MBP-tagged substrates (K-Ras4B for FTase; RhoA for GGTase-I) in 20 μl of buffer {50 mM Tris-HCl (pH 7.5), 10 mM MgCl2, […] and 5 mM DTT}. Inhibitors were added at the indicated concentrations. The final DMSO concentration was 2.5% for all samples.
Reactions were carried out for 10 min at 30° C. The reaction mixture was spotted onto a filter paper, treated with 10% trichloroacetic acid (TCA) followed by ethanol and acetone washing. The filter was counted using a scintillation counter. Kinetic assays in which the GGPP concentration was varied employed fixed concentrations of GGTase-I and RhoA, and reactions were carried out for 5 min. Similarly, fixed concentrations of GGTase-I and GGPP were used when the amount of RhoA was varied.

Jurkat cells = assay: Jurkat cell growth inhibition; assay type: cell-based, human
Protocol: In Table 4 in cell GI50 values for the growth inhibition of Jurkat cells are reported. The GI50 value is the concentration of a test compound needed to produce 50% growth inhibition in the cell type listed. In Table 4 the isolated yield of each synthetic step for the synthesis of corresponding compounds are also reported.
Panc-1 cells (Pancreatic cancer cell line) and Jurkat cells (T-cell leukemia) were treated with 12.5 μM of P5-H6 or 12.5 μM of mP5-H6a for 72 hours. The cell number was counted as described in Example 5.
Cell viability was determined by Cell Counting Kit-8 (CCK-8, Dojindo, Kumamoto, Japan) as described previously (31). Cell viability was calculated relative to the DMSO control. Cell cycle profile was analyzed by flow cytometry as described previously (32).

[1] = Tables 3, 5, 7, read-out: In vitro (enzyme assay) IC50, GGTase I
[2] = Homo sapiens, Jurkat, Tables 4, 6, 7, read-out: Jurkat cell GI50
[3] = Tables 8-15, no unit printed there (Table 7 head: μM unless otherwise specified), read-out: In vitro (GGTase I IC50)
[4] = Homo sapiens, Jurkat, Tables 8-15, no unit printed there, read-out: Jurkat GI50
[5] = Tables 4, 6, 7, read-out: Jurkat cell GI50
[6] = Tables 5, 14, read-out: In vitro (enzyme assay) IC50, GGTase I

Row | SMILES | IC50 (GGTase-I; [1]) [µM] | IC50 (GGTase-I; [3]) [µM] | also measured
1 | CCOC(=O)C1=C[C@@H](C(C)(C)C)N(S(=O)(=O)c2ccccc2C)[C@H]1c1ccc(Cl)cc1 | > 50 | – | GI50 (Jurkat cells; [2]): 18.5 µM
2 | CONC(=O)C1=C[C@@H](C(C)(C)C)N(S(=O)(=O)c2ccccc2C)[C@H]1c1ccc(Cl)cc1 | 3.8 | – | GI50 (Jurkat cells; [2]): 12.6 µM
3 | Cc1ccccc1S(=O)(=O)N1[C@@H](c2ccc(Cl)c(Cl)c2)C(C(=O)O)=C[C@H]1C(C)(C)C | – | 0.363 | –
4 | CC(C)(C)[C@@H]1C=C(C(=O)O)[C@H](c2ccc(Cl)c(Cl)c2)N1S(=O)(=O)c1ccccc1Br | – | 0.348 | –
5 | CC(C)(C)[C@@H]1C=C(C(=O)O)[C@H](c2ccc(Br)cc2)N1S(=O)(=O)c1ccccc1Cl | – | 0.349 | –
6 | Cc1ccccc1S(=O)(=O)N1[C@@H](c2ccc(Cl)cc2)C(C(=O)O)=C[C@H]1C(C)CC(C)(C)C (stereo partly drawn) | – | 3.4 | –
7 | COC(=O)[C@H](Cc1ccccc1)NC(=O)CCOCC1=C[C@@H](C(C)(C)C)N(S(=O)(=O)c2ccccc2C)[C@H]1c1ccc(Cl)cc1 | – | > 20 | GI50 (Jurkat cells; [4]): 5.1 µM
8 | Cc1ccccc1S(=O)(=O)N1C(c2cccc(Cl)c2)C(C(N)=O)=CC[C@H]1c1ccc(Cl)cc1 (stereo partly drawn) | – | > 20 | GI50 (Jurkat cells; [4]): 5.36 µM
9 | COC(=O)[C@H](CC(C)C)NC(=O)C1=CC[C@@H](c2ccc(Cl)cc2)N(S(=O)(=O)c2ccccc2C)C1c1cccc(Cl)c1 (stereo partly drawn) | – | > 50 | GI50 (Jurkat cells; [4]): 6.1 µM
10 | Cc1ccccc1S(=O)(=O)N1[C@@H](c2cccc(Cl)c2)C(C(=O)N[C@@H](CC(C)C)C(N)=O)=CC[C@H]1c1ccc(Cl)cc1 | – | > 50 | –
11 | CC(C)C[C@H](NC(=O)C1=CC[C@@H](c2cccc(Br)c2)N(S(=O)(=O)c2ccc(Cl)cc2)[C@H]1c1cccc(Cl)c1)C(N)=O | – | 39.1 | –
12 | COC(=O)[C@H](Cc1ccccc1)NC(=O)C1=C[C@@H](C(C)(C)C)N(S(=O)(=O)c2ccccc2C)[C@H]1c1ccc(Cl)cc1 [P61-A05] | – | – | GI50 (Jurkat cells; [5]): 10.5 µM
13 | Cc1ccccc1S(=O)(=O)N1[C@@H](c2ccc(Cl)cc2)C(C(=O)N[C@@H](Cc2ccccc2)C(N)=O)=C[C@H]1C(C)(C)C [P61-A06] | – | – | GI50 (Jurkat cells; [2]): 4.89 µM
14 | Cc1ccccc1S(=O)(=O)N1[C@@H](c2ccc(Cl)cc2)C(C(=O)N[C@@H](Cc2ccccc2)C(=O)O)=C[C@H]1C(C)(C)C [P61-A08] | 1.4 | – | GI50 (Jurkat cells; [2]): 13 µM
15 | Cc1ccccc1S(=O)(=O)N1[C@@H](c2ccc(Cl)cc2)C(C(=O)N[C@@H](CC(C)C)C(N)=O)=C[C@H]1C(C)(C)C [P61-B02] | 8.1 | – | GI50 (Jurkat cells; [2]): 6.58 µM
16 | Cc1ccccc1S(=O)(=O)N1[C@@H](c2ccc(Cl)cc2)C(C(=O)N[C@@H](Cc2ccccc2)C(N)=O)=C[C@H]1C(C)(C)C [P61-B07] | – | – | GI50 (Jurkat cells; [5]): 6.1 µM
17 | Cc1ccccc1S(=O)(=O)N1C(c2cccc(Cl)c2)C(C(=O)N[C@@H](CC(C)C)C(N)=O)=CC[C@H]1c1ccc(Cl)cc1 (stereo partly drawn) [P61-C05] | > 50 | – | GI50 (Jurkat cells; [2]): 6.1 µM
18 | CC(C)C[C@H](NC(=O)C1=CC[C@@H](c2cccc(Br)c2)N(S(=O)(=O)c2ccc(Cl)cc2)C1c1cccc(Cl)c1)C(N)=O (stereo partly drawn) [P61-C06] | 39.1 | – | GI50 (Jurkat cells; [2]): 3.15 µM
19 | CC(C)(C)[C@@H]1C=C(C(=O)N[C@@H](Cc2ccccc2)C(N)=O)[C@H](c2ccc(Cl)c(Cl)c2)N1S(=O)(=O)c1ccccc1Br [P61-E03] | > 20 | – | –
20 | COC(=O)[C@H](CC(C)C)NC(=O)C1=CC[C@@H](c2ccc(Cl)cc2)N(S(=O)(=O)c2ccccc2C)[C@H]1c1cccc(Cl)c1 [P61-E07] | > 20 | – | GI50 (Jurkat cells; [2]): 3.53 µM
21 | CC(C)C[C@H](NC(=O)C1=CC[C@@H](c2cccc(Cl)c2)N(S(=O)(=O)c2ccc(Br)cc2)[C@H]1c1cccc(Cl)c1)C(N)=O [P61-E08] | > 20 | – | –
22 | NC(=O)[C@H](Cc1ccccc1)NC(=O)C1=CC[C@@H](c2cccc(Cl)c2)N(S(=O)(=O)c2ccc(Br)cc2)C1c1cccc(Br)c1 (stereo partly drawn) [P61-E09] | > 20 | > 20 | –

Row | SMILES | IC50 (GGTase-I; [1]) [µM] | IC50 (GGTase-I; [3]) [µM] | also measured
23 | CC(C)CC(NC(=O)C1=CCC(c2cccc(Cl)c2)N(S(=O)(=O)c2ccc(Br)cc2)C1c1cccc(Cl)c1)C(=O)O (stereo not drawn) [P61-E11] | – | – | IC50 (GGTase-I; [6]): 0.5 µM
24 | NC(=O)[C@H](Cc1ccccc1)NC(=O)C1=CC[C@@H](c2cccc(Br)c2)N(S(=O)(=O)c2ccc(Cl)cc2)C1c1cccc(Cl)c1 (stereo partly drawn) [P61-F11] | – | – | IC50 (GGTase-I; [6]): 0.3 µM
25 | NC(=O)[C@H](Cc1ccccc1)NC(=O)C1=CC[C@@H](c2cccc(Br)c2)N(S(=O)(=O)c2ccc(Cl)cc2)C1c1cccc(Cl)c1 (stereo partly drawn) [P61-G02] | – | – | IC50 (GGTase-I; [6]): 0.45 µM
26 | O=C(NC(Cc1ccccc1)C(=O)O)C1=CCC(c2cccc(Cl)c2)N(S(=O)(=O)c2ccc(Br)cc2)C1c1cccc(Cl)c1 (stereo not drawn) [P61-G05] | – | – | IC50 (GGTase-I; [6]): 0.15 µM
27 | O=C(NC(Cc1ccccc1)C(=O)O)C1=CCC(c2cccc(Br)c2)N(S(=O)(=O)c2ccc(Cl)cc2)C1c1cccc(Cl)c1 (stereo not drawn) [P61-G07] | – | – | IC50 (GGTase-I; [6]): 0.07 µM
28 | CC(C)CC(NC(=O)C1=CCC(c2cccc(Br)c2)N(S(=O)(=O)c2ccc(Cl)cc2)C1c1cccc(Cl)c1)C(=O)O (stereo not drawn) [P61-G08] | – | – | IC50 (GGTase-I; [6]): 0.06 µM
29 | CC(C)CC(NC(=O)C1=CCC(c2cccc(Br)c2)N(S(=O)(=O)c2ccc(F)cc2)C1c1cccc(Cl)c1)C(=O)O (stereo not drawn) [P61-H06] | – | – | IC50 (GGTase-I; [6]): 0.21 µM; GI50 (Jurkat cells; Homo sapiens, Jurkat, Table 6, read-out: Jurkat cell GI50): 0.21 µM
30 | O=C(N[C@@H](Cc1ccccc1)C(=O)O)C1=CC[C@@H](c2cccc(Br)c2)N(S(=O)(=O)c2ccc(F)cc2)[C@H]1c1cccc(Cl)c1 [P61-H07] | – | – | IC50 (GGTase-I; [6]): 0.011 µM
31 | CC(C)CC(NC(=O)C1=CCC(c2cccc(Cl)c2)N(S(=O)(=O)c2ccc(Cl)cc2)C1c1cccc(Cl)c1)C(=O)O (stereo not drawn) [P61-H08] | – | – | IC50 (GGTase-I; [6]): 0.18 µM
32 | O=C(NC(Cc1ccccc1)C(=O)O)C1=CCC(c2cccc(Cl)c2)N(S(=O)(=O)c2ccc(Cl)cc2)C1c1cccc(Cl)c1 (stereo not drawn) [P61-H09] | – | – | IC50 (GGTase-I; [6]): 0.021 µM
33 | COC(=O)C(CC(C)C)NC(=O)C1=CCC(c2cccc(Cl)c2)N(S(=O)(=O)c2ccc(Br)cc2)C1c1cccc(Br)c1 (stereo not drawn) [P67-A04] | > 20 | – | GI50 (Jurkat cells; [2]): 8 µM
34 | COC(=O)C(CC(C)C)NC(=O)C1=CCC(c2cccc(Cl)c2)N(S(=O)(=O)c2ccc(Cl)cc2)C1c1cccc(Cl)c1 (stereo not drawn) [P67-A05] | > 20 | – | –
35 | COC(=O)C(CC(C)C)NC(=O)C1=CCC(c2cccc(Br)c2)N(S(=O)(=O)c2ccc(Cl)cc2)C1c1cccc(Cl)c1 (stereo not drawn) [P67-A07] | > 20 | – | –
36 | COC(=O)C(CC(C)C)NC(=O)C1=CCC(c2cccc(Cl)c2)N(S(=O)(=O)c2ccc(Br)cc2)C1c1cccc(Cl)c1 (stereo not drawn) [P67-A09] | > 20 | – | GI50 (Jurkat cells; [2]): 3.81 µM
37 | COC(=O)C(CC(C)C)NC(=O)C1=CCC(c2cccc(Br)c2)N(S(=O)(=O)c2ccc(F)cc2)C1c1cccc(Cl)c1 (stereo not drawn) [P67-H11] | > 20 | – | –
38 | Cc1ccccc1S(=O)(=O)N1[C@@H](c2ccc(Cl)cc2)C(C(=O)O)=C[C@H]1C(C)(C)C [drawing 136] | 0.5 | – | GI50 (Jurkat cells; [2]): 20 µM
39 | Cc1ccccc1S(=O)(=O)N1[C@@H](c2ccc(Cl)cc2)C(C(=O)O)=C[C@H]1C(C)(C)C [drawing 143] | – | 0.5 | GI50 (Jurkat cells; [4]): 20 µM
40 | CC(C)(C)[C@@H]1C=C(C(=O)N[C@@H](Cc2ccccc2)C(N)=O)[C@H](c2ccc(Cl)c(Cl)c2)N1S(=O)(=O)c1ccccc1Br [drawing 167] | – | > 20 | –
41 | Cc1ccccc1S(=O)(=O)N1C(c2cccc(Cl)c2)C(C(=O)O)=CC[C@H]1c1ccc(Cl)cc1 (stereo partly drawn) [drawing 183] | – | 0.31 | GI50 (Jurkat cells; [4]): 20 µM
42 | Cc1ccccc1S(=O)(=O)N1C(c2cccc(Cl)c2)C(C(=O)O)=CC[C@H]1c1ccc(Cl)cc1 (stereo partly drawn) [drawing 189] | – | 0.31 | –
43 | CC(C)C[C@H](NC(=O)C1=CC[C@@H](c2cccc(Cl)c2)N(S(=O)(=O)c2ccc(Br)cc2)[C@H]1c1cccc(Cl)c1)C(N)=O [drawing 209] | – | > 20 | –
